Here are results for three compounds from ChEMBL document CHEMBL5390287, “Discovery of a Tritiated Radioligand with High Affinity and Selectivity for the Histamine H3 Receptor” (ACS Med Chem Lett, 2023).

Experiment [1] has as its target T1, Histamine H3 receptor (Homo sapiens, UniProt Q9Y5N1). Briefly: Binding affinity to SP-FLAG tagged human histamine H3 receptor expressed in HEK293T cells assessed as dissociation constant by incubated for 30 mins by scintillation counting analysis. The experiment is classed as cell-based.
In experiment [2] the target is T1, Histamine H3 receptor. Description: Binding affinity to SP-FLAG tagged human histamine H3 receptor expressed in HEK293T cells assessed as kinetic dissociation constant incubated for 30 mins by scintillation counting analysis. The experiment is classed as cell-based.
Experiment [3] deals with T1, Histamine H3 receptor. Briefly: Binding affinity to SP-FLAG tagged human histamine H3 receptor expressed in HEK293T cells using sodium containing Leibovitz's L-15 medium incubated for 60 min by scintillation counter analysis. The experiment is classed as cell-based.
For experiment [4], the target named is T1, Histamine H3 receptor. Briefly: Displacement of [3H]UR-MN259 from SP-FLAG tagged human histamine H3 receptor expressed in HEK293T cells assessed as inhibition constant incubated for 60 min by scintillation counter analysis. The experiment is classed as cell-based.
In experiment [5] the target is T1, Histamine H3 receptor. Description: Binding affinity to SP-FLAG tagged human histamine H3 receptor expressed in HEK293T cells assessed as dissociation rate constant incubated for 30 mins by scintillation counting analysis. The experiment is classed as cell-based. Conditions: tested as the 3H-labelled form.
The species entered for experiment [6] is Homo sapiens. Description: Selectivity ratio of Ki for human histamine H2 receptor to Ki for human histamine H3 receptor.
In experiment [7] the target is Histamine H4 receptor (Homo sapiens, UniProt Q9H3N8). Briefly: Displacement of [3H]histamine from SP-FLAG tagged human histamine H4 receptor expressed in HEK293T cells assessed as inhibition constant incubated for 60 min by scintillation counter analysis. The experiment is classed as cell-based.
The species entered for experiment [8] is Homo sapiens. Briefly: Selectivity ratio of Ki for human histamine H1 receptor to Ki for human histamine H3 receptor.
For experiment [9], the target named is T1, Histamine H3 receptor. Briefly: Binding affinity to SP-FLAG tagged human histamine H3 receptor expressed in HEK293T cells. The experiment is classed as cell-based. Conditions: tested as the 3H-labelled form.
The target of experiment [10] is T1, Histamine H3 receptor. Description: Binding affinity to SP-FLAG tagged human histamine H3 receptor expressed in HEK293T cells assessed as association time constant incubated for 60 mins by scintillation counting analysis. To be noted: tested as the 3H-labelled form. The class given is cell-based.
The target in experiment [11] is T1, Histamine H3 receptor. Briefly: Antagonist activity at human histamine H3 receptor in HEK293T cells expressing H3R-NlucC/NlucN-mGsi construct using furimazine as substrate assessed as displacement of histamine by MiniG recruitment assay. The experiment is classed as functional, cell-based. Conditions: filed as antagonist.
The target in experiment [12] is T1, Histamine H3 receptor. Description: Binding affinity to SP-FLAG tagged human histamine H3 receptor expressed in HEK293T cells assessed as maximum binding. The experiment is classed as cell-based. To be noted: tested as the 3H-labelled form.
The species entered for experiment [13] is Homo sapiens. Description: Selectivity ratio of Ki for human histamine H4 receptor to Ki for human histamine H3 receptor.
The target of experiment [14] is T1, Histamine H3 receptor. Briefly: Binding affinity to SP-FLAG tagged human histamine H3 receptor expressed in HEK293T cells assessed as dissociation time constant incubated for 30 mins by scintillation counting analysis. To be noted: tested as the 3H-labelled form. The experiment is classed as cell-based.
Experiment [15] deals with T1, Histamine H3 receptor. Briefly: Binding affinity to SP-FLAG tagged human histamine H3 receptor expressed in HEK293T cells assessed as association rate constant incubated for 60 mins by scintillation counting analysis. Conditions: tested as the 3H-labelled form. The class given is cell-based.
In experiment [16] the target is Histamine H1 receptor (Homo sapiens, UniProt P35367). Description: Displacement of [3H]mepyramine from SP-FLAG tagged human histamine H1 receptor expressed in HEK293T cells assessed as inhibition constant incubated for 60 min by scintillation counter analysis. The experiment is classed as cell-based.
The target in experiment [17] is Histamine H2 receptor (Homo sapiens, UniProt P25021). Briefly: Displacement of [3H]UR-KAT479 from SP-FLAG tagged human histamine H2 receptor expressed in HEK293T cells assessed as inhibition constant incubated for 60 min by scintillation counter analysis. The experiment is classed as cell-based.
Experiment [18] addresses T1, Histamine H3 receptor. Briefly: Agonist activity at human histamine H3 receptor in HEK293T cells expressing H3R-NlucC/NlucN-mGsi construct using furimazine as substrate upto 10 uM by MiniG recruitment assay. The class given is functional, cell-based.
In experiment [19] the target is T1, Histamine H3 receptor. Briefly: Displacement of UR-NR266 from NLuc-tagged human histamine H3 receptor expressed in HEK293T cells assessed as inhibition constant incubated for 5 mins followed by UR-NR266 addition by furimazine based NanoBRET competition binding assay. The experiment is classed as cell-based.

The source made the active and inactive calls. The calls are words filed in the database; no cut-off is given here. A value given as a limit tells only on which side of the number the result lay.

T1 sequence (Q9Y5N1 whole entry): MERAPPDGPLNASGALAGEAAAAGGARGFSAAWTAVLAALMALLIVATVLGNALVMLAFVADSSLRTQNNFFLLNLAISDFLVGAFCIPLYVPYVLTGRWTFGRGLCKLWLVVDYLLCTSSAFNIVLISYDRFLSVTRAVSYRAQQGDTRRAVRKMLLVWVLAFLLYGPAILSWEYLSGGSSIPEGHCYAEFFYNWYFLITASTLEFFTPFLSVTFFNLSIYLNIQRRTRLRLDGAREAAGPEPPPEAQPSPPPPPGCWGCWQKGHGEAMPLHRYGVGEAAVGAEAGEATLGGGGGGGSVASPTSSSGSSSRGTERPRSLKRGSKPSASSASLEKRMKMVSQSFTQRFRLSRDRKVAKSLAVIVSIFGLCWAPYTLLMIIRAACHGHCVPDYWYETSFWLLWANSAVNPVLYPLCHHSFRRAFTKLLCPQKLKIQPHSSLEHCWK
Chain of Histamine H4 receptor (Q9H3N8 whole entry): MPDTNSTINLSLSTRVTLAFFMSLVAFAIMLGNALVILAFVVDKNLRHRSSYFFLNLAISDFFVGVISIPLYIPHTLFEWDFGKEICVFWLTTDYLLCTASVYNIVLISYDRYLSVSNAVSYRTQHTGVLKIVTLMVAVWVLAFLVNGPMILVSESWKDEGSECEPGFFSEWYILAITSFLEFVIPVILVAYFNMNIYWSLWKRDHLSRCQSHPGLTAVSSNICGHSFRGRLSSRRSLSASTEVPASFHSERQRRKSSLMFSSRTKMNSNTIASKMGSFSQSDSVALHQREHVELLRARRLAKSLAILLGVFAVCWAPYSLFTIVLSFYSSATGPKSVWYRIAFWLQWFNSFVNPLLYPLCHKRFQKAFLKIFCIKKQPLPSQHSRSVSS
Chain of Histamine H1 receptor (P35367 whole entry): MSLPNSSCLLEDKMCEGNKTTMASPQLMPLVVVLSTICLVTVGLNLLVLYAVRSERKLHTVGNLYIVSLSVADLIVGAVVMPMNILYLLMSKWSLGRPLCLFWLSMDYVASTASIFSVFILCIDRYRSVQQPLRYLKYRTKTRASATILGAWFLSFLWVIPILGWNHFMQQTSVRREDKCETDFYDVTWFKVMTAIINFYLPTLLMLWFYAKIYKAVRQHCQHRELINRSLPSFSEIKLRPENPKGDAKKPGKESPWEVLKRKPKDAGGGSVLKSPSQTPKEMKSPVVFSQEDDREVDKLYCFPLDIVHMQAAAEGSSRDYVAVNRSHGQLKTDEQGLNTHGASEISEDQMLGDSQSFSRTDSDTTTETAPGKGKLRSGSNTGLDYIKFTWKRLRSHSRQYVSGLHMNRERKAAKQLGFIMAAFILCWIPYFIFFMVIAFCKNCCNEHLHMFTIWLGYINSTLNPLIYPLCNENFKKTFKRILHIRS
Chain of Histamine H2 receptor (P25021 whole entry): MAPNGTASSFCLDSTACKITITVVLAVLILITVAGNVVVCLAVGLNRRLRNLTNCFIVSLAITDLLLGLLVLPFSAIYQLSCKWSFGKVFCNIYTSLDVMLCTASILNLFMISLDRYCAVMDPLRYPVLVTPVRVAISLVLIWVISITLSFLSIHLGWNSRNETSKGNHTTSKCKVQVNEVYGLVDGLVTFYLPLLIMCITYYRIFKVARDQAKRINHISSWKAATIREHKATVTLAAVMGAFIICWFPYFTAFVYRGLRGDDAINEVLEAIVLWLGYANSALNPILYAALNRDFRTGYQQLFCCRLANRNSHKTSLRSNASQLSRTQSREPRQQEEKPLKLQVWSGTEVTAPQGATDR

Take `[3H]C([3H])([3H])C([3H])([3H])C(=O)NC1CCN(Cc2ccc(OCCCN3CCCCC3)cc2)CC1`: the figures for the Kd in experiment [1], in experiment [2] and in experiment [3] were 0.562 nM, 0.324 nM and 0.513 nM, respectively.
On to `N=C(N)SCCc1cnc[nH]1` [IMETIT], for which the Ki in experiment [4] was 5.75 nM; in experiment [3], 28.2 nM.
For the compound `CCC(=O)NC1CCN(Cc2ccc(OCCCN3CCCCC3)cc2)CC1`, the Ki is 0.282 nM in experiment [4]; > 100000 nM in experiment [7]; > 100000 nM in [16]; > 100000 nM in experiment [17]; 0.275 nM in [19]; 0.288 nM in [3]. For the same compound, the K in experiment [5] is 0.07 min⁻¹; in [15], 3.67e+06 M⁻¹ s⁻¹. In addition, the Ratio Ki in experiment [6], in experiment [8] and in [13] was > 100 in each case. In experiment [9], the Kobs was found to be 0.18 min⁻¹. In addition, the TIME was 0.102 h in experiment [10] and 0.241 h in [14]. For the same compound, the pKb in experiment [11] was found to be 9.39. In addition, the Bmax (disintegrations/minute) in [12] was 1670. Moreover, the outcome in [18] was inactive.
